Results on 13 compounds are retold here after patent US8822691B2, “Pesticidal carboxamides” (Bayer CropScience AG, priority 2009, dated 2014).

Where “and” joins values, the source holds several entries; their conditions need not be identical. Equal entries are not always repeated.

What all share (format): in vivo
For one series, the system named is Aulacophora femoralis. The experiment in a line: Test against cucurbit leaf beetle (Aulacophora femoralis), leaf dip. Particulars: active compound concentration of 500 ppm, second instar larvae on cucumber leaves, after 7 days; for pest or weed control at 500 ppm: Aulacophora, foliar, 168 h, read-out: insecticidal activity. Here is the method: (§1) Unless not mentioned otherwise, the test solutions were prepared as follows:
(§2) Containing as solvent: Dimethylformamide, 3 parts by weight; and as emulsifier: Polyoxyethylene alkyl phenyl ether, 1 part by weight
(§3) To prepare the test solution, 1 part by weight of an active compound is mixed with the above-mentioned amount of solvent containing the above-mentioned amount of emulsifier, and the mixture is diluted with water to the desired concentration.
Leaves of cucumber were immersed in the test solution at the appropriate concentration, and the leaves were dried in air. The leaves were then put in a plastic cup containing sterilized black soil and five Aulacophora femoralis at second instar larvae were released in the cup. The cups were placed in a temperature-controlled chamber at 25° C. After 7 days, the number of dead larvae was counted, and thus the insecticidal activity was calculated. An insecticidal activity of 100% means that all larvae were killed, whereas an insecticidal activity of 0% means that no larva was killed.

The next series has as its system Spodoptera litura. The series is described as follows: Test against tobacco cutworm (Spodoptera litura) larvae, leaf dip. Particulars: active compound concentration of 100 ppm, third instar larvae on sweet potato leaves, after 7 days; for pest or weed control at 100 ppm: foliar, 168 h, read-out: insecticidal activity. The method, then:
as §1, §2, §3
Leaves of sweet potato were immersed in the test solution at the appropriate concentration, and the leaves were dried in air. The leaves were then placed in a petri dish having a diameter of 9 cm, and ten Spodoptera litura at third instar larvae were released therein. The petri dishes were placed in a temperature-controlled chamber at 25° C. After 2 days and 4 days more sweet potato leaves were added. After 7 days, the number of dead larvae was counted to calculate the insecticidal activity. An insecticidal activity of 100% means that all larvae were killed, whereas an insecticidal activity of 0% means that no larva was killed. In the current test, the results of two petri dishes for each treatment were averaged.

The next series deals with Tetranychus urticae. The experiment in a line: Test against two-spotted spider mite (Tetranychus urticae), spray. Particulars: active compound concentration of 500 ppm, adult mites on kidney bean, after 7 days; for pest or weed control at 500 ppm: Tetranychus urticae, 168 h, read-out: acaricidal activity. Here is the method:
as §1, §2, §3
50 to 100 adult mites of Tetranychus urticae were inoculated to leaves of kidney bean at two-leaf stage planted in a pot of 6 cm in diameter. After one day, test solution at the appropriate concentration was sprayed thereon in a sufficient amount using a spray gun. After the spraying, the plant pot was placed inside a greenhouse, and after 7 days, the acaricidal activity was calculated. An acaricidal activity of 100% means that all mites were killed, whereas an acaricidal activity of 0% means that no mite was killed.

Series [1] deals with Boophilus microplus. The experiment in a line: Boophilus microplus (dip). The note with it: for mortality at 100 ppm: Rhipicephalus microplus, 168 h, read-out: activity (mortality). Here is the method: Solvent: Dimethylsulfoxid
To produce a suitable preparation of active compound, 10 mg of active compound are dissolved in 0.5 ml solvent, and the concentrate is diluted with water to the desired concentration. Eight to ten adult engorged female Boophilus microplus ticks are placed in perforated plastic beakers and immersed in aqueous compound solution for one minute. Ticks are transferred to a filter paper in a plastic tray. Egg deposition of fertile eggs is monitored after. After 7 days mortality in % is determined. 100% means that all the ticks have been killed; 0% means that none of the ticks have been killed.

Another series concerns Ctenocephalides felis. The experiment in a line: Ctenocephalides felis-test (CTECFE). The note with it: adult unfed fleas, after 2 days; for activity (mortality): application rate of 100 ppm in cattle blood; for mortality at 100 ppm: Ctenocephalides felis, in Bos taurus, 48 h, read-out: activity (mortality), application rate of 100 ppm in cattle blood. Here is the method:
(§4) Solvent: dimethyl sulfoxide
To produce a suitable preparation of active compound, 10 mg of active compound are dissolved in 0.5 ml solvent, and the concentrate is diluted with cattle blood to the desired concentration. Approximately 20 adult unfed (Ctenocepahlides felis) are placed in flea chambers. The blood chamber, sealed with parafilm on the bottom, are filled with cattle blood supplied with compound solution and placed on top of the flea chamber, so that the fleas are able to suck the blood. The blood chamber is heated to 37° C. whereas the flea chamber is kept at room temperature. After 2 days mortality in % is determined. 100% means that all the fleas have been killed; 0% means that none of the fleas have been killed.

The subject of a further series is Musca domestica. The experiment in a line: Musca domestica-test. Particulars: for activity (mortality): application rate of 100 ppm, adults, after 2 days; for mortality at 100 ppm: Musca domestica, 48 h, read-out: activity (mortality). The method, then:
as §4
To produce a suitable preparation of active compound, 10 mg of active compound are dissolved in 0.5 ml solvent, and the concentrate is diluted with water to the desired concentration. Prior to the assay, a piece of kitchen sponge is soaked with a mixture of sugar and compound solution and placed into a container. 10 adults (Musca domestica) are placed into the container and closed with a perforated lid. After 2 days mortality in % is determined. 100% means that all the flies have been killed; 0% means that none of the flies have been killed.

Series [2] concerns Boophilus microplus. The series is described as follows: Boophilus microplus-test (injection). The note with it: Rhipicephalus microplus, 168 h, read-out: activity (mortality in %; 100% means that all eggs are infertile). The method, then:
as §4
To produce a suitable preparation of active compound, 10 mg of active compound are dissolved in 0.5 ml solvent, and the concentrate is diluted with solvent to the desired concentration. Five adult engorged female ticks (Boophilus microplus) are injected with 1 μl compound solution into the abdomen. Ticks are transferred into replica plates and incubated in a climate chamber for a period of time. Egg deposition of fertile eggs is monitored.
After 7 days mortality in % is determined. 100% means that all eggs are infertile; 0% means that all eggs are fertile.

For another series, the system named is Lucilia cuprina. The series is described as follows: Lucilia cuprina (48 h) larval test. The note with it: for mortality at 100 ppm: Lucilia cuprina, 48 h, read-out: activity (larval mortality). The method, then: Species: Lucilia cuprina 1st instar larvae (age 24 hrs)
as §4
10 mg active compound are dissolve in 0.5 ml dimethyl sulfoxide. Serial dilutions are made to obtain the desired rates. Approximately 20 Lucilia cuprina 1st instar larvae are transferred into a test tube containing 1 cm^3 of minced horse meat and 0.5 ml aqueous dilution of test compound. After 48 hrs percentage of larval mortality are recorded. 100% efficacy all larvae are killed, % efficacy normally developed larvae after 48 hrs.

As usually defined, the mortality is the percentage killed. With `N#Cc1ccc2cc(C(=O)Nc3c(Br)cc(C(F)(C(F)(F)F)C(F)(F)C(F)(F)F)cc3OC(F)F)ccc2n1` (centres unmarked) [Compound No. 2-173, N-[2-bromo-6-(difluoromethoxy)-4-(1,1,1,2,3,3,4,4,4-nonafluorobutan-2-yl)phenyl]-2-cyanoquinoline-6-carboxamide], the pest or weed control at 500 ppm in the series with Aulacophora femoralis and with Tetranychus urticae was 100% throughout. In the series with Spodoptera litura, the pest or weed control at 100 ppm was found to be 100%. Further, in the series with Boophilus microplus [1], the mortality at 100 ppm worked out at 100%.

Turning to `O=C(Nc1c(Br)cc(C(F)(C(F)(F)F)C(F)(F)C(F)(F)F)cc1Br)c1ccc2ncccc2c1` (centres unmarked) [2-108], the insecticidal activity in the series with Aulacophora femoralis and with Spodoptera litura was 100% in each case. Moreover, the “activity (mortality)” value in the series with Ctenocephalides felis is 80% and 95%; in the series with Musca domestica, 80%.

Consider `CCc1cc(C(F)(C(F)(F)F)C(F)(F)C(F)(F)F)cc(C)c1NC(=O)c1ccc2nc(C#N)ccc2c1` (centres unmarked) [2-90], for which the insecticidal activity in the series with Aulacophora femoralis and in the series with Spodoptera litura was 100% each time. In the series on Tetranychus urticae, this compound came in with an acaricidal activity of 100%. Also, the “activity (mortality)” value in the series on Musca domestica was determined as 80%.

As for `N#Cc1ccc2cc(C(=O)Nc3c(Br)cc(C(F)(C(F)(F)F)C(F)(F)F)cc3OC(F)F)ccc2n1` [Compound No. 2-154, N-[2-bromo-6-(difluoromethoxy)-4-(1,1,1,2,3,3,3-heptafluoropropan-2-yl)phenyl]-2-cyanoquinoline-6-carboxamide], the pest or weed control at 500 ppm in the series with Aulacophora femoralis and with Tetranychus urticae was 100% each time. The pest or weed control at 100 ppm in the series on Spodoptera litura came to 100%. Besides, the mortality at 100 ppm in the series on Boophilus microplus [1] amounted to 90%.

As for `O=C(Nc1c(Br)cc(C(F)(C(F)(F)F)C(F)(F)Br)cc1OC(F)F)c1ccc2c(ccc[n+]2[O-])c1` (centres unmarked) [Compound No. 2-202, N-[2-bromo-4-(1-bromo-1,1,2,3,3,3-hexafluoropropan-2-yl)-6-(difluoromethoxy)phenyl]quinoline-6-carboxamide 1-oxide], the mortality at 0.02 mg in the series on Boophilus microplus [2] was found to be 100%. Further, the pest or weed control at 500 ppm in the series on Aulacophora femoralis and with Tetranychus urticae was 100% throughout. Moreover, the mortality at 100 ppm with Ctenocephalides felis was found to be 95%; in the series on Musca domestica, 100%; with Lucilia cuprina, 100%.

For `CCc1cc(C(F)(C(F)(F)F)C(F)(F)F)cc(Br)c1NC(=O)c1ccc2nc(C#N)ccc2c1` [2-49], the insecticidal activity with Aulacophora femoralis and in the series with Spodoptera litura was 100% in each case. Further, in the series on Ctenocephalides felis, the “activity (mortality)” value was found to be 95%. In addition, in the series on Tetranychus urticae, the acaricidal activity is listed as 100%.

`Cc1cc(C(F)(C(F)(F)F)C(F)(F)F)cc(C)c1NC(=O)c1ccc2ncc(Cl)cc2c1` [Compound No. 2-213, 3-chloro-N-[4-(1,1,1,2,3,3,3-heptafluoropropan-2-yl)-2,6-dimethylphenyl]quinoline-6-carboxamide]: the mortality at 0.02 mg with Boophilus microplus [2] was 100%. In addition, the pest or weed control at 500 ppm with Aulacophora femoralis was 100%. Besides, the pest or weed control at 100 ppm in the series with Spodoptera litura is 100%. The mortality at 100 ppm with Musca domestica was 80%; with Lucilia cuprina, 100%.

For the compound `N#Cc1ccc2cc(C(=O)Nc3c(I)cc(C(F)(C(F)(F)F)C(F)(F)F)cc3I)ccc2n1` [2-69], the insecticidal activity in the series with Aulacophora femoralis and in the series on Spodoptera litura was 100% each time. The same compound displayed an acaricidal activity with Tetranychus urticae of 100%. In the series with Boophilus microplus [1] (application rate of 100 ppm, dip of adult engorged female ticks for one minute, after 7 days), the “activity (mortality)” value is on record as 100%.

Turning to `Cc1cc(C(F)(C(F)(F)F)C(F)(F)F)cc(C)c1NC(=O)c1ccc2nc(C#N)ccc2c1` [Compound No. 2-20, 2-cyano-N-[4-(1,1,1,2,3,3,3-heptafluoropropan-2-yl)-2,6-dimethylphenyl]quinoline-6-carboxamide], the mortality at 0.02 mg in the series with Boophilus microplus [2] worked out at 100%. The pest or weed control at 500 ppm in the series on Aulacophora femoralis worked out at 100%. For the same compound, the figures for the mortality at 100 ppm in the series with Ctenocephalides felis, in the series with Musca domestica and in the series with Lucilia cuprina were 100%, 95% and 100%, respectively. Further, the pest or weed control at 100 ppm in the series on Spodoptera litura worked out at 100%.

Regarding `O=C(Nc1c(I)cc(C(F)(C(F)(F)F)C(F)(F)C(F)(F)F)cc1OC(F)F)c1ccc2ncccc2c1` (centres unmarked) [Compound No. 2-174, N-[2-(difluoromethoxy)-6-iodo-4-(1,1,1,2,3,3,4,4,4-nonafluorobutan-2-yl)phenyl]quinoline-6-carboxamide], in the series on Boophilus microplus [2], the mortality at 0.02 mg was 100%. Besides, the pest or weed control at 500 ppm with Aulacophora femoralis and with Tetranychus urticae was 100% each time. Moreover, the mortality at 100 ppm with Ctenocephalides felis, in the series on Musca domestica and in the series with Lucilia cuprina was 100% in each case. Moreover, the pest or weed control at 100 ppm in the series with Spodoptera litura was found to be 100%.

`Cc1cc(C(F)(C(F)(F)F)C(F)(F)F)cc(C)c1NC(=O)c1cc(Cl)c2ncc(Cl)cc2c1` [2-214, 3,8-dichloro-N-[4-(1,1,1,2,3,3,3-heptafluoropropan-2-yl)-2,6-dimethylphenyl]quinoline-6-carboxamide]: in the series with Boophilus microplus [2], the mortality at 0.02 mg stood at 100%. In addition, in the series with Aulacophora femoralis, the pest or weed control at 500 ppm turned out to be 100%. The pest or weed control at 100 ppm in the series with Spodoptera litura was 100%. Besides, the mortality at 100 ppm in the series on Lucilia cuprina stood at 90%.

In the series on Aulacophora femoralis, `N#Cc1ccc2cc(C(=O)Nc3c(Br)cc(C(F)(F)F)cc3Br)ccc2n1` [2-3] yielded an insecticidal activity of 100%. Also, in the series on Ctenocephalides felis, the “activity (mortality)” value amounted to 90%. In the series with Lucilia cuprina (application rate of 100 ppm, 1st instar larvae, after 48 hrs), the “activity (larval mortality)” value was determined as 80%.

As to `O=C(Nc1c(Br)cc(C(F)(C(F)(F)F)C(F)(F)Br)cc1OC(F)F)c1ccc2ncccc2c1` (centres unmarked) [Compound No. 2-201, N-[2-bromo-4-(1-bromo-1,1,2,3,3,3-hexafluoropropan-2-yl)-6-(difluoromethoxy)phenyl]quinoline-6-carboxamide], the mortality at 0.02 mg with Boophilus microplus [2] stood at 100%. The pest or weed control at 500 ppm in the series on Aulacophora femoralis and in the series with Tetranychus urticae was 100% throughout. The mortality at 100 ppm in the series with Ctenocephalides felis, in the series on Musca domestica and in the series on Lucilia cuprina was 100% in each case. Further, the pest or weed control at 100 ppm in the series on Spodoptera litura came to 100%.
